Assay results published in PubChem BioAssay AID2060511 (Molecular Pharmacology Branch, DTP, NCI, 2025).

Test system: 422866-222-R5-J1-PDC spheroids with HUVEC/MSC, viability
Assay: Anticancer human tumor 422866-222-R5-J1-PDC patient-derived pancreatic adenocarcinoma cell line growth inhibition [GQUAD]
Conditions: for IC50: curve of first compound; for viability, T/C: stronger effect = lower value; active = viability on the fitted dose curve at most 10% of control; inactive = the rest
Description: DNA G-quadruplex Stabilizer Agents in Combinations in Complex Spheroids
A high-throughput screen of multi-cell type tumor spheroids was designed to identify active combinations of DNA G-quadruplex stabilizer agents and targeted small molecules. Complex spheroids include a stromal component modeled by human endothelial cells (HUVEC) and fibroblasts modeled by human mesenchymal stem cells (MSCs). The concentration ranges selected for each drug and investigational agent were based upon clinically achievable concentrations if the clinical Cmax of the agent was known.
Compounds. The drugs and investigational agents: pidnarulex (CX-5461; NSC782164), APTO-253 (NSC789042), BRACO-19 (NSC847499), peposertib (NSC802822), ceralasertib (NSC780249), elimusertib (NSC800525), camonsertib (NSC841442), AZD-1390 (NSC803789), olaparib (NSC753686), talazoparib (NSC767125), ART-558 (NSC835418), sotorasib (NSC818433), MRTX-1133 (NSC836407), SN-38 (NSC673596), topotecan (NSC609699), etoposide (NSC141540), doxorubicin (NSC123127), gemcitabine (NSC613327), 5-fluorouracil (NSC19893), paclitaxel (NSC125973), vemurafenib (NSC761431), panobinostat (NSC761190), R-306465 (JNJ-16241199; NSC773264), adavosertib (NSC754352), TP-3654 (NSC805149), carboplatin (NSC241240), KSQ-4279 (NSC840948), and staurosporine (NSC755774) were obtained from the National Cancer Institute (NCI) Developmental Therapeutics Program Chemical Repository (34). The FDA-approved anticancer drug set is available from the NCI Developmental Therapeutics Program. […] The stock solutions were prepared in dimethyl sulfoxide (DMSO, Sigma-Aldrich, St. Louis, MO, cat. D2650) at 800-fold the tested concentration and stored at -70 degrees C prior to their use. All drugs and investigational agents were tested over a range starting from a high concentration at or near the clinical Cmax and decreasing in half-log increments. If the clinical Cmax for an agent had not been determined, the highest concentration tested was 10 microM.
2.3 Cell Culture. All cells were maintained in an incubator at 37 degrees C and 5% CO2 with 95% humidity. The PDC lines were cultured according to standard operating procedures established by the NCI PDMR. All PDCs were thawed and cultured in Matrigel-coated flasks prepared with a working solution of 1X Ham's F-12 nutrient mix, without supplementation (Invitrogen, cat. 11765054), 100 U/mL penicillin-streptomycin (Invitrogen, cat. 15140122), and 2.5% Matrigel (Corning Inc., cat. 354248) for the first three passages. The 857933-349-R-J2-PDC line was cultured in 6C/Colon 1B media, which includes advanced DMEM/F-12 (Thermo Fisher Scientific, cat. 12634028), 10 mM HEPES (Thermo Fisher Scientific, cat. 15630080), 1X GlutaMAX supplement (Thermo Fisher Scientific, cat. 35050061), 0.1 mg/mL primocin (InvivoGen, cat. ant-pm-2), 10% defined fetal bovine serum, heat inactivated (HyClone Laboratories Inc., cat. SH30070.03HI), 50% L-WRN conditioned media (ATCC, cat. CRL-3276), 1.25 mM N-Acetyl-L-cysteine (Sigma-Aldrich, cat. A9165), 10 mM nicotinamide (Sigma-Aldrich, cat. N0636), 1X B-27 supplement (Thermo Fisher Scientific, cat. 17504044), 1X N-2 supplement (Thermo Fisher Scientific, cat. 17502048), 10 microM Y-27632 dihydrochloride (Tocris Bioscience, cat. 1254), and 50 ng/mL human EGF recombinant protein (Thermo Fisher Scientific, cat. PHG0311). The 485176-168-R4-J1-PDC line was cultured in Panc media, which includes all 6C/Colon 1B media components plus 100 ng/mL human FGF-10 (Thermo Fisher Scientific, cat. 100-26), 500 nM SB-431542 (Selleckchem, cat. S1067), and gastrin (Tocris, cat. 3006).
[…]

[1] = second compound 0.0316 µM, first compound 0.0316 µM
[2] = second compound 0.0316 µM, first compound 0.316 µM
[3] = second compound 0.1 µM, first compound 0.0316 µM
[4] = second compound 0.1 µM, first compound 0.316 µM
[5] = second compound 0.316 µM, first compound 0.0316 µM
[6] = second compound 0.316 µM, first compound 0.316 µM
[7] = second compound 1 µM, first compound 0.0316 µM
[8] = second compound 1 µM, first compound 0.316 µM
[9] = second compound 3.16 µM, first compound 0.0316 µM
[10] = second compound 3.16 µM, first compound 0.316 µM
[11] = second compound 10 µM, first compound 0.0316 µM
[12] = second compound 10 µM, first compound 0.316 µM
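Also: spheroids exposed to compounds for seven days before reading.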
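For viability, T/C in this document: percent viability relative to DMSO vehicle control taken as 100%.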

Nc1ccn(C2OC(CO)C(O)C2(F)F)c(=O)n1 (centres undefined) + CN(C)c1ccc(Nc2c3ccc(NC(=O)CCN4CCCC4)cc3nc3cc(NC(=O)CCN4CCCC4)ccc23)cc1
1080 nM: IC50 (second compound 0.316 µM)
3230 nM: IC50 (second compound 0.0316 µM)
277 nM: IC50 (second compound 3.16 µM)
> 10000 nM: IC50 (second compound 10 µM)
451 nM: IC50 (second compound 1 µM)
869 nM: IC50 (second compound 0.1 µM)
inactive: viability, T/C [1] 89.5% | viability, T/C (second compound 0.0316 µM, first compound 0.1 µM) 71.6% | viability, T/C [2] 74.6% | viability, T/C (second compound 0.0316 µM, first compound 1 µM) 54.4% | viability, T/C (second compound 0.0316 µM, first compound 3.16 µM) 52.5% | viability, T/C (second compound 0.0316 µM, first compound 10 µM) 41.5% | viability, T/C [3] 104% | viability, T/C (second compound 0.1 µM, first compound 0.1 µM) 70.8% | viability, T/C [4] 66.5% | viability, T/C (second compound 0.1 µM, first compound 1 µM) 43.5% | viability, T/C (second compound 0.1 µM, first compound 3.16 µM) 44.6% | viability, T/C (second compound 0.1 µM, first compound 10 µM) 39.2% | viability, T/C [5] 91.4% | viability, T/C (second compound 0.316 µM, first compound 0.1 µM) 68.4% | viability, T/C [6] 54.4% | viability, T/C (second compound 0.316 µM, first compound 1 µM) 57.1% | viability, T/C (second compound 0.316 µM, first compound 3.16 µM) 48.2% | viability, T/C (second compound 0.316 µM, first compound 10 µM) 36.5% | viability, T/C [7] 72.7% | viability, T/C (second compound 1 µM, first compound 0.1 µM) 59% | viability, T/C [8] 57.6% | viability, T/C (second compound 1 µM, first compound 1 µM) 39.6% | viability, T/C (second compound 1 µM, first compound 3.16 µM) 41.3% | viability, T/C (second compound 1 µM, first compound 10 µM) 34.7% | viability, T/C [9] 75.6% | viability, T/C (second compound 3.16 µM, first compound 0.1 µM) 67.6% | viability, T/C [10] 48.7% | viability, T/C (second compound 3.16 µM, first compound 1 µM) 35% | viability, T/C (second compound 3.16 µM, first compound 3.16 µM) 39.4% | viability, T/C (second compound 3.16 µM, first compound 10 µM) 39.2% | viability, T/C [11] 73.6% | viability, T/C (second compound 10 µM, first compound 0.1 µM) 57.9% | viability, T/C [12] 57.9% | viability, T/C (second compound 10 µM, first compound 1 µM) 50.9% | viability, T/C (second compound 10 µM, first compound 3.16 µM) 51.8% | viability, T/C (second compound 10 µM, first compound 10 µM) 49%

Cn1ncnc1[C@H]1c2n[nH]c(=O)c3cc(F)cc(c23)N[C@@H]1c1ccc(F)cc1 + CN(C)c1ccc(Nc2c3ccc(NC(=O)CCN4CCCC4)cc3nc3cc(NC(=O)CCN4CCCC4)ccc23)cc1
> 316 nM: IC50 (second compound 0.0316 µM) | IC50 (second compound 0.1 µM) | IC50 (second compound 0.316 µM) | IC50 (second compound 1 µM) | IC50 (second compound 3.16 µM) | IC50 (second compound 10 µM)
inactive: viability, T/C (second compound 0.0316 µM, first compound 0.000999 µM) 112% | viability, T/C (second compound 0.0316 µM, first compound 0.00316 µM) 93.7% | viability, T/C (second compound 0.0316 µM, first compound 0.00999 µM) 108% | viability, T/C [1] 97.2% | viability, T/C (second compound 0.0316 µM, first compound 0.0999 µM) 80.6% | viability, T/C [2] 75.1% | viability, T/C (second compound 0.1 µM, first compound 0.000999 µM) 113% | viability, T/C (second compound 0.1 µM, first compound 0.00316 µM) 95.9% | viability, T/C (second compound 0.1 µM, first compound 0.00999 µM) 88% | viability, T/C [3] 93.5% | viability, T/C (second compound 0.1 µM, first compound 0.0999 µM) 83% | viability, T/C [4] 75.7% | viability, T/C (second compound 0.316 µM, first compound 0.000999 µM) 94.1% | viability, T/C (second compound 0.316 µM, first compound 0.00316 µM) 90% | viability, T/C (second compound 0.316 µM, first compound 0.00999 µM) 81.5% | viability, T/C [5] 85% | viability, T/C (second compound 0.316 µM, first compound 0.0999 µM) 89.1% | viability, T/C [6] 67.3% | viability, T/C (second compound 1 µM, first compound 0.000999 µM) 78.9% | viability, T/C (second compound 1 µM, first compound 0.00316 µM) 81.3% | viability, T/C (second compound 1 µM, first compound 0.00999 µM) 75.9% | viability, T/C [7] 91.5% | viability, T/C (second compound 1 µM, first compound 0.0999 µM) 73.7% | viability, T/C [8] 72% | viability, T/C (second compound 3.16 µM, first compound 0.000999 µM) 72.3% | viability, T/C (second compound 3.16 µM, first compound 0.00316 µM) 69.7% | viability, T/C (second compound 3.16 µM, first compound 0.00999 µM) 89.5% | viability, T/C [9] 83% | viability, T/C (second compound 3.16 µM, first compound 0.0999 µM) 80.1% | viability, T/C [10] 80.3% | viability, T/C (second compound 10 µM, first compound 0.000999 µM) 97.7% | viability, T/C (second compound 10 µM, first compound 0.00316 µM) 85.1% | viability, T/C (second compound 10 µM, first compound 0.00999 µM) 97.4% | viability, T/C [11] 90.4% | viability, T/C (second compound 10 µM, first compound 0.0999 µM) 71.8% | viability, T/C [12] 82.1%
